Experimental data from patent US7569225B2, “Immunogenic lipopeptides comprising T-helper and B-cell epitopes” (The Council of The Queensland Institute of Medical Research, priority 2002, dated 2009).
Where “and” joins values, the source holds several entries; their conditions need not be identical. Equal entries are not always repeated. Entries after “also recorded” stand apart in the source; their conditions may differ. Where two headings read alike, the source gives them in different places. Where no end group is shown, it is not given here. Pam3Cys = lipoamino acid of Formula (III) conjugated to the N-terminus; Pam2Cys = lipid of Formula (II)

Legend:
[1] = system: D1 cells; format: cell-based, BALB/c mouse
[2] = system: female mice; format: in vivo, BALB/c mice; settings: for Incidence of pregnancy 13 weeks after 2nd Dose / Incidence of pregnancy 2 weeks after 2nd Dose: 20 nmoles subcutaneously; for Incidence of pregnancy 13 weeks after 2nd Dose: animals per group of five; for Incidence of pregnancy 2 weeks after 2nd Dose: animals that dropped litters per group of five; for Pregnancy status (No. of animals per group that dropped litters): fertility experiment initiated two weeks after second dose
[3] = Solubility of peptides and lipopeptides in saline (visual inspection); format: physicochemical; settings: for solubility / appearance of solution: visual inspection
Description: FIG. 2 is a photographic representation showing the solubilities of lipopeptides designated [Th]-Lys(Pam2Cys-Ser-Ser)-[B] (left) and Pam2Cys-Ser-Ser-[Th]-[B] (right) in FIG. 1, wherein the polypeptide moieties have the amino acid sequences set forth in SEQ ID NO: 7 and SEQ ID NO: 5, respectively. Both solutions are approximately 1 mg/ml lipopeptide in saline solution.
Enhanced solubility was most evident in those cases where lipid was attached between the two epitopes at the approximate centre of the molecule. The lipopeptides designated [Th]-Lys(Pam2Cys)-[B] and [Th]-Lys(Pam3Cys)-[B] were soluble in saline at concentrations of at least 8 mg/ml (no higher concentrations were examined), whereas constructs in which lipid was attached to the N-terminus of the sequence formed opalescent solutions at concentrations as low as 0.25 mg/ml.
We considered that the insoluble nature of this construct would prevent it from being considered as a viable proposition for manufacture as a vaccine.

[4] = system: M1 GAS strain; assay: Survival of inoculated mice after intranasal challenge with GAS; format: in vivo, Group A Streptococcus; settings: Quackenbush mice, challenge two weeks after last dose
Description: Two weeks after the last dose of antigen, mice were challenged intranasally with M1 GAS strain and survival determined at various time points afterwards.
Female outbred Quackenbush mice 4-6 weeks old (15/group) were inoculated intranasally with 60 μg of peptide-based vaccine in a total volume of 30 μl PBS. Mice received three doses of vaccine at 21-day intervals. […] Two weeks after the last dose of antigen, mice were challenged intranasally with M1 GAS strain and survival determined at various time points afterwards.

[5] = system: J14; settings: Quackenbush mice, 60 μg intranasally, three doses, eight days after final dose; versus control groups
Description: Female outbred Quackenbush mice 4-6 weeks old (15/group) were inoculated intranasally with 60 μg of each peptide-based vaccine in a total volume of 30 μl PBS. Mice received three doses of vaccine at 21-day intervals. Eight days following the final dose saliva was collected from individual mice and the average J14-specific salivary IgA antibody titres were determined by standard ELISA.
Female outbred Quackenbush mice 4-6 weeks old (15/group) were inoculated intranasally with 60 μg of peptide-based vaccine in a total volume of 30 μl PBS. Mice received three doses of vaccine at 21-day intervals. […] Eight days following the final dose saliva was collected from individual mice and the average J14-specific salivary IgA antibody titres were determined by standard ELISA.

[6] = system: J14; settings: Quackenbush mice, 60 μg intranasally, three doses, 6 days after last dose
Description: Female outbred Quackenbush mice 4-6 weeks old (15/group) were inoculated intranasally with 60 μg of peptide-based vaccine in a total volume of 30 μl PBS. Mice received three doses of vaccine at 21-day intervals. Fecal IgA was determined 6 days following the last dose of antigen.

[7] = system: J14; settings: Quackenbush mice, 60 μg intranasally, three doses at 21-day intervals, seven days after final dose; versus control groups
Description: The lipoamino acid moiety Pam2Cys-Ser-Ser was added to an internal lysine positioned between the T-helper epitope and the B-cell epitope in all lipopeptides tested. In the lipopeptide [Th]-Lys(Pam2Cys-Ser-Ser)-[J14], this is the only lipid moiety, whereas in the lipopeptide Pam2Cys-Ser-Ser-[Th]-Lys(Pam2Cys-Ser-Ser)-[J14], an additional lipoamino acid moiety Pam2Cys-Ser-Ser was added to the N-terminal amino group of the T-helper epitope. […] Seven days following the final dose mice were bled from the tail vein and J14-specific serum IgG was determined.
ELISA assays were carried out on serum samples as described essentially by Ghosh et al., Int Immun. […] The titres of antibody are expressed as the reciprocal of the highest dilution of serum to achieve an OD of 0.2, which represents approximately 5 times the background binding in the absence of antibody. The isotype of antibodies specific for LHRH or J14 was determined using rabbit antisera directed against mouse IgM, IgG1, IgG2a, IgG2b, IgG3 or IgA (ICN Pharmaceuticals Inc., Costa Mesa, Calif.) as previously described by Ghosh et al., Int Immun.
Female outbred Quackenbush mice 4-6 weeks old (15/group) were inoculated intranasally with 60 μg of peptide-based vaccine in a total volume of 30 μl PBS. […] Seven days following the final dose mice were bled from the tail vein and J14-specific serum IgG was determined.

With “Pam2Cys-[Th]—[B]: lipid of Formula (II) conjugated to the N-terminus of peptide [Th]-[B] (SEQ ID NO: 5) (Pam2Cys-GALNNRFQIKGVELKSEHWSYGLRPG)” the “ability to cause maturation of DC / up-regulate MHC class II expression (FIG. 5)” value [1] was “least effective”, the “Incidence of pregnancy 13 weeks after 2nd Dose” value (“Incidence of pregnancy 13 weeks” below) [2] was 3/5 and the “Incidence of pregnancy 2 weeks after 2nd Dose” value (“Incidence of pregnancy 2 weeks” for short) [2] was 2/5. The “Incidence of pregnancy 2 weeks” value ([2]; listed as Pam2Cys-[Th]-[B]) was “two animals”.
For GALNNRFQIKGVELKSEHWSYGLRPG [[Th]—[B]], the “Pregnancy status (No. of animals per group that dropped litters)” value ([2]; 1 nmole, subcutaneous) was 3/5, the “Pregnancy status (No. of animals per group that dropped litters)” value ([2]; 10 nmole, subcutaneous) was 1/5 and the “Incidence of pregnancy 13 weeks” value [2] was 0/5. For the same compound, the “Incidence of pregnancy 13 weeks” value ([2]; listed as [Th]-[B]) was “still infertile”, the “Incidence of pregnancy 2 weeks” value [2] was 0/5 and the “Incidence of pregnancy 2 weeks” value ([2]; listed as [Th]-[B]) was “None of the mice”. For the same compound, the “Pregnancy No. animals per group that dropped litters” value ([2]; subcutaneous, initiated two weeks after second dose) was 0/5.
With “GALNNRFQIKGVELKSKEHWSYGLRPG [[Th]-Lys-[B]]” the D1 maturation rate [1] was “about 26%”, the “Incidence of pregnancy 13 weeks” value [2] was “still infertile and 0/5” and the “Incidence of pregnancy 2 weeks” value [2] was “None of the mice and 0/5”.
In the case of “Pam3Cys-Ser-Ser-[Th]—[B]: lipoamino acid of Formula (III) conjugated to the N-terminus of peptide [Th]-[B] (SEQ ID NO: 5) (Pam3Cys-SSGALNNRFQIKGVELKSEHWSYGLRPG)”, the “solubility / appearance of solution” value [3] is reported as “so insoluble that it could not be purified by RP-HPLC”, the “Incidence of pregnancy 13 weeks” value [2] is reported as 0/5 and the “Incidence of pregnancy 2 weeks” value [2] is reported as 2/5. The “Incidence of pregnancy 2 weeks” value ([2]; listed as Pam3Cys-Ser-Ser-[Th]-[B]) was “two animals”.
For `CCCCCCCCCCCCCCCC(=O)OCC(CSC[C@H](N)C(=O)N[C@@H](CO)C(=O)N[C@@H](CO)C(=O)NCCCC[C@H](NC(=O)[C@H](CO)NC(=O)[C@H](CCCCN)NC(=O)[C@H](CC(C)C)NC(=O)[C@H](CCC(=O)O)NC(=O)[C@@H](NC(=O)CNC(=O)[C@H](CCCCN)NC(=O)[C@@H](NC(=O)[C@H](CCC(N)=O)NC(=O)[C@H](Cc1ccccc1)NC(=O)[C@H](CCCNC(=N)N)NC(=O)[C@H](CC(N)=O)NC(=O)[C@H](CC(N)=O)NC(=O)[C@H](CC(C)C)NC(=O)[C@H](C)NC(=O)CN)[C@@H](C)CC)C(C)C)C(=O)N[C@@H](CCC(=O)O)C(=O)N[C@@H](Cc1c[nH]cn1)C(=O)N[C@@H](Cc1c[nH]c2ccccc12)C(=O)N[C@@H](CO)C(=O)N[C@@H](Cc1ccc(O)cc1)C(=O)NCC(=O)N[C@@H](CC(C)C)C(=O)N[C@@H](CCCNC(=N)N)C(=O)N1CCC[C@H]1C(=O)NCC(=O)O)OC(=O)CCCCCCCCCCCCCCC` (stereo partly drawn) [[Th]-Lys(Pam2Cys-Ser-Ser)-[B]], the “solubility / appearance of solution” value [3] was “clear; also recorded: higher solubility”.
With “[Th]-[J14]: non-lipidated peptide of T-helper epitope P25 (SEQ ID NO: 24) and J14 (SEQ ID NO: 101) (KLIPNASLIENCTKAELKQAEDKVKASREAKKQVEKALEQLEDKVK)” the “survival following intranasal challenge with GAS (FIG. 16)” value [4] was “some protective immunity”.
For “[Th]-Lys(Pam2Cys-Ser-Ser)-[J14]: P25-Lys-J14 (SEQ ID NO: 106) with Pam2Cys-Ser-Ser on the internal lysine between the epitopes (KLIPNASLIENCTKAELKKQAEDKVKASREAKKQVEKALEQLEDKVK; not fully specified (residue 18); also: Pam2Cys-Ser-Ser on internal lysine between the epitopes (K18 or K19))”, the “J14-specific salivary IgA titres (FIG. 14)” value [5] was “far superior”, the “faecal IgA titres (FIG. 15)” value [6] was “significant (P<0.05) faecal IgA titres” and the “J14-specific serum IgG titres (FIG. 12)” value [7] was “significantly higher (P<0.05) serum IgG titres”. The “survival following intranasal challenge with GAS (FIG. 16)” value [4] was “best survival”.
For `CCCCCCCCCCCCCCCC(=O)OCC(CSC[C@H](N)C(=O)N[C@@H](CO)C(=O)N[C@@H](CO)C(=O)NCC(=O)N[C@@H](C)C(=O)N[C@@H](CC(C)C)C(=O)N[C@@H](CC(N)=O)C(=O)N[C@@H](CC(N)=O)C(=O)N[C@@H](CCCNC(=N)N)C(=O)N[C@@H](Cc1ccccc1)C(=O)N[C@@H](CCC(N)=O)C(=O)N[C@H](C(=O)N[C@@H](CCCCN)C(=O)NCC(=O)N[C@H](C(=O)N[C@@H](CCC(=O)O)C(=O)N[C@@H](CC(C)C)C(=O)N[C@@H](CCCCN)C(=O)N[C@@H](CO)C(=O)N[C@@H](CCC(=O)O)C(=O)N[C@@H](Cc1c[nH]cn1)C(=O)N[C@@H](Cc1c[nH]c2ccccc12)C(=O)N[C@@H](CO)C(=O)N[C@@H](Cc1ccc(O)cc1)C(=O)NCC(=O)N[C@@H](CC(C)C)C(=O)N[C@@H](CCCNC(=N)N)C(=O)N1CCC[C@H]1C(=O)NCC(=O)O)C(C)C)[C@@H](C)CC)OC(=O)CCCCCCCCCCCCCCC` (stereo partly drawn) [Pam2Cys-Ser-Ser-[Th]—[B]], the “solubility / appearance of solution” value [3] was “opalescent”.
For `CCCCCCCCCCCCCCCC(=O)OCC(CSC[C@H](N)C(=O)NCCCC[C@H](NC(=O)[C@H](CO)NC(=O)[C@H](CCCCN)NC(=O)[C@H](CC(C)C)NC(=O)[C@H](CCC(=O)O)NC(=O)[C@@H](NC(=O)CNC(=O)[C@H](CCCCN)NC(=O)[C@@H](NC(=O)[C@H](CCC(N)=O)NC(=O)[C@H](Cc1ccccc1)NC(=O)[C@H](CCCNC(=N)N)NC(=O)[C@H](CC(N)=O)NC(=O)[C@H](CC(N)=O)NC(=O)[C@H](CC(C)C)NC(=O)[C@H](C)NC(=O)CN)[C@@H](C)CC)C(C)C)C(=O)N[C@@H](CCC(=O)O)C(=O)N[C@@H](Cc1c[nH]cn1)C(=O)N[C@@H](Cc1c[nH]c2ccccc12)C(=O)N[C@@H](CO)C(=O)N[C@@H](Cc1ccc(O)cc1)C(=O)NCC(=O)N[C@@H](CC(C)C)C(=O)N[C@@H](CCCNC(=N)N)C(=O)N1CCC[C@H]1C(=O)NCC(=O)O)OC(=O)CCCCCCCCCCCCCCC` (some centres unmarked) [[Th]-Lys(Pam2Cys)-[B]], the solubility ([3]; no higher concentrations were examined, read-out: soluble in saline at concentrations of at least) was ≥ 8000 µg/mL.
